Data reported in US11529323B2 (priority 2017, dated 2022).

Experiments:
[1] = tested on: C-26 colon adenocarcinoma cachexia model; assay: AR-42 dose-response study in the C-26 cachexia model; type: in vivo, mouse
Protocol: (§1) These studies were performed as previously described (Tseng Y C, et al. J Natl Cancer Inst. 2015 107(12):djv274) with modifications. Tumors were established in the right flank by subcutaneous injection of C-26 cells (0.5×10^6 cells in 0.1 mL). […] TFM-4AS-1 (a potent experimental SARM), dihydrotestosterone (DHT) and vehicles were administered by subcutaneous injection.
Male CD2F1 mice were stratified by body weight and then randomly assigned into 5 groups of 6 animals each. C-26 tumors were established in four of the groups, while those in the fifth group, serving as tumor-free controls, were injected with sterile saline. Six days later, animals with palpable tumors were treated with AR-42 once daily at 10 (n=5) and 20 mg/kg (n=6), and every other day at 50 mg/kg (n=5), or vehicle control (n=4) for 13 days. Upon sacrifice on study day 18, when the majority of tumor-bearing control mice met euthanasia criteria, the left gastrocnemius muscle was excised and flash frozen in liquid nitrogen and stored at −80° C. for subsequent analyses. Carcass weights were corrected for tumor weight by assuming a tumor density equivalent to water (1 g/cm^3).

[2] = Sborov et al. 2017; cited from earlier work
[3] = Single dose AR-42 plasma and tissue pharmacokinetics in mouse; type: in vivo; settings: for Plasma exposure: tumor-free mice
Protocol: FIG. 1A is a graph showing results of a single dose AR-42 plasma and tissue pharmacokinetic study. Tumor-free […] mice were administered a single dose of 10 mg/kg, 20 mg/kg or 50 mg/kg AR-42 (n=3) and plasma (dashed) and gastrocnemius (solid) tissue analyzed for AR-42 content at different times using LC-MS/MS analyses according to Materials and Methods (Mean±SD). FIG. 1B is a graph showing AR-42 dose-response. Starting six days after C-26 cell injection, animals received vehicle or AR-42 orally at 10 or 20 mg/kg daily or 50 mg/kg every other day for 13 days (n=4-6). Day 18 bodyweights compared to Day 0, corrected for tumor mass according to the Materials and Methods. Bars represent mean±SD. *p<0.05, ****p<0.0001 versus tumor-bearing vehicle-treated controls, Tukey's multiple comparison test. FIG. 1C is a table showing AR-42's in vitro human HDAC inhibition profile determined using recombinant enzymatic assays. […] Longitudinal mean bodyweights per treatment group are presented as a percent change from pre-study body weights. Tumor-free animals (circles), tumor-bearing animals (bars). Inset: terminal tumor volumes (mean+SD, n=5-6 per group).
Pharmacokinetic studies were performed as previously described (Cheng H et al. AAPS J. 2016 18(3):737-45).
Pharmacokinetic studies were performed as previously described (Cheng H, et al. AAPS J. 2016 18(3):737-45) with the following modifications. Seven week-old, male, tumor-free CD2F1 mice (n=3 per dose and time point) were administered single oral doses of 10, 20 and 50 mg/kg AR-42 and then sacrificed 0.25, 4 and 24 hours later. Fifty mg of gastrocnemius muscle tissue was flash frozen in 2 mL Beadblaster™ 24 (MIDSCl; St. Louis, Mo.) tubes and stored at −80° C. Samples were homogenized for 6-cycles using a Beadblaster 24 with analytical standards in 1 mL methanol and then centrifuged at 13,000 rpm (4° C.) for 10 min. Supernatants were transferred to glass tubes, dried under nitrogen, then reconstituted in 200 μL 40% methanol/0.1% formic acid. Plasma preparation and LC-MS/MS analyses were performed as previously described (Sborov D W, et al. Leuk Lymphoma 2017 58(10):2310-8). Mouse plasma and muscle pharmacokinetic parameters were estimated as previously described with the exception of Cavg which was calculated as AUCall/[Dosing Interval(h)].

[4] = tested on: C-26 colon adenocarcinoma cachexia model; assay: Confirmatory AR-42/GTx-024 combination study (Study 2), C-26 model; type: in vivo, mouse
Protocol: as §1
This confirmatory study was performed exactly as Study 1 with expanded animal numbers. Tumor-free control groups were maintained at 6 animals each, whereas 10 animals were included in each of the tumor-bearing groups. […] Grip strength was measured on study days 0 (baseline) and 16. Due to rapid model progression, this study was terminated after only 12 days of treatment.
Forelimb grip strength was measured using Bio-GS3 Grip Strength Test Meter (Forceleader DBA Bioseb, Pinellas Park, Fla.). Each mouse was held by the base of its tail and lowered over the apparatus until its forepaws grasped the metal pull bar. The mouse was then gently pulled horizontally in a straight line away from the grip strength meter until the mouse released the bar. The force applied to the bar at the moment of release was recorded as the peak force. Five measurements were taken from each mouse, the average of which was designated as the mouse's grip strength.

phospho-STAT3 (pSTAT3) = assay: Phospho-STAT3/STAT3 ELISA in C-26 tumors, Study 2; type: in vivo, mouse; settings: AR-42 10 mg/kg
Source text: FIG. 4A is a table showing multiplex analysis of diverse serum cytokines in terminal samples from Study 2. Presented cytokines are limited to those showing significant differences from tumor-bearing vehicle-treated controls. G-CSF: granulocyte colony-stimulating factor, GM-CSF: granulocyte macrophage colony-stimulating factor, IL-6: interleukin-6, IL-17: interleukin-17, IP-10: interferon gamma-induced protein 10, KC: chemokine (C-X-C motif) ligand 1, LIF: leukemia inhibitory factor, M-CSF: macrophage colony-stimulating factor. FIG. 4B is a bar graph showin ELISA analysis of serum IL-6 levels in terminal samples from Study 2. ND, not detected. FIG. 4C is a plot showing individual animal serum IL-6 values as determined in A plotted against tumor-corrected terminal bodyweights from Study 2 (Pearson's Correlation). […] FIG. 4E is a plot showing spleen weights normalized to tumor-corrected terminal body weights of mice from Study 2. FIG. 4F is a bar graph showing ELISA analysis of STAT3 within C-26 tumors from Study 2. […]
Phospho-STAT3/STAT3 Analysis: Expression of phospho-STAT3 and total STAT3 in C-26 tumor tissues was measured using commercial sandwich ELISA kits according to the manufacturer's instructions (PathScan® Phospho-Stat3, #7300, and Total Stat3, #7305, Cell Signaling Technology, Danvers, Mass.).

CC(C)[C@H](C(=O)Nc1ccc(C(=O)NO)cc1)c1ccccc1 [AR-42, (S)—N-hydroxy-4-(3-methyl-2-phenylbutanamido)benzamide]
lowest efficacious dose ([1]; daily oral, C-26 model): 10 mg/kg
tumor-corrected body weight ([1]; thirteen daily oral doses of 20 or 10 mg/kg, similar to six 50 mg/kg doses q2d, C-26 tumor-bearing mice, Day 18): reversed C-26 tumor-mediated reductions in tumor-corrected body weight
well tolerated plasma exposure in humans [2]: 8.5 µM·h
concentration at 4 h ([3]; male, mouse, in vivo, single oral dose 10 mg/kg, remained above for 4 hours, read-out: gastrocnemius muscle concentrations): > 700 nM
mouse plasma exposure at 50 mg/kg relative to well tolerated plasma exposure in humans ([3]; oral 50 mg/kg in mice versus 8.5 μM*h in humans): 8.7 fold
Plasma exposure ([3]; single oral dose 10 mg/kg): 10.9 µM·h
Plasma exposure ([3]; single oral dose 50 mg/kg): 74.3 µM·h
spleen mass ([4]; Study 1 and 2, C-26 tumor-bearing, normalized to tumor-corrected terminal body weight): either unchanged or slightly increased
forelimb grip strength ([4]; Study 2, day 16, C-26 tumor-bearing): improved grip strength over vehicle-treated tumor-bearing controls
adipose or heart mass ([4]; Study 2, AR-42 10 mg/kg): had no impact on adipose or heart mass
effect on gastrocnemius and quadriceps mass ([4]; Study 2, C-26 tumor-bearing, versus vehicle-treated tumor-bearing controls): significantly spared gastrocnemius and quadriceps mass
pSTAT3 signaling within the C-26 tumors (phospho-STAT3 (pSTAT3)): did not significantly suppress pSTAT3 signaling within the C-26 tumors
